Test results published in patent US20200368190A1, “METHODS OF TREATMENT” (Arena Pharmaceuticals, Inc., priority 2017, published 2020).

Tests used:
[1] = intravenous; cited from earlier work
[2] = intravenous, over 9 weeks, cited from earlier work
[3] = oral, titrated to the highest tolerated dose; individuals with systemic sclerosis; cited from earlier work
[4] = Clinical Trial 2: randomized, double-blind, placebo-controlled study in individuals with severe Raynaud's; type: in vivo; conditions: titration scheme
Protocol: A randomized, double-blind, placebo-controlled study is conducted in individuals with severe Raynaud's. Individuals are administered Compound 1 using a titration scheme. Compound 1 is determined to be efficacious for the treatment and/or prevention of Raynaud's.

[5] = Clinical Trial 1: 22-week randomized, double-blind, placebo-controlled study with dose titration; type: in vivo
Protocol: A 22-week randomized, double-blind, placebo-controlled study with a dose titration period of up to 9 weeks was conducted. Sixty-one individuals were randomized 2:1 Compound 1 to placebo. Right Heart Catheterization (RHC) measurements were obtained prior to study Day 1 of the dose titration period and at Week 22. The following values were obtained and recorded: pulmonary artery pressure (PAP) (systolic, diastolic, and mean), heart rate (HR), right atrial pressure (RAP), pulmonary capillary wedge pressure (PCWP) right ventricular pressure (RVP) and cardiac output (CO), pulmonary vascular resistance (PVR), arterial and mixed venous oxygen saturation […] (if applicable). Systemic vascular resistance (SVR) was estimated from blood pressure measurements.
Primary efficacy endpoints for the study were: a) change from baseline in PVR after 22 weeks of treatment, and b) change from baseline in 6 MWD after 22 weeks of treatment. Compound 1 was administered as a capsule in 0.01, 0.02, 0.03, 0.04, and 0.10 mg dose strengths. The starting dose of Compound 1 was 0.01 mg twice daily. The dose of Compound 1 was titrated according to individual tolerability. If the initial dose was tolerated (0.01 mg twice daily), then the dose was increased once a week in the following fashion: 0.02 mg twice daily, 0.03 mg twice daily, 0.04 mg twice daily, 0.06 mg twice daily, 0.08 mg, 0.1 mg twice daily, 0.2 mg twice daily and 0.3 mg twice daily. The dose was optionally escalated to a possible maximum total daily dose of 0.6 mg (0.3 mg twice daily), pending tolerability.

[6] = after 22 weeks of treatment, capsule, titrated from 0.01 mg twice daily up to 0.3 mg twice daily

In the case of `CCCCC[C@H](O)/C=C/[C@@H]1[C@H]2C/C(=C/CCCC(=O)O)O[C@H]2C[C@H]1O` [epoprostenol], the “frequency and duration of Raynaud phenomenon attacks” value [1] is given as “reduced frequency and duration” and the “loss in clinical response, time after the last infusion” value [1] is given as 8-10 weeks.

For `CC#CCC(C)[C@H](O)/C=C/[C@@H]1[C@H]2C/C(=C/CCCC(=O)O)C[C@H]2C[C@H]1O` (stereo partly drawn) [iloprost], the improve severity score ([2]; vs. 19.7% comparator) is given as 34.8% and the “reduce weekly Raynaud phenomenon attacks” value ([2]; vs. 22.2% comparator) is given as 39.1%.

In the case of `CC(C)N(CCCCOCC(=O)NS(C)(=O)=O)c1cnc(-c2ccccc2)c(-c2ccccc2)n1` [selexipag], the “primary efficacy endpoint: reduction in the number of Raynaud's phenomenon attacks per week versus placebo” value [3] is given as “did not meet the primary efficacy endpoint”.

In the case of `O=C(O)COC[C@H]1CC[C@H](COC(=O)N(c2ccccc2)c2ccc(Cl)cc2)CC1` [Compound 1, 2-(((1r,4r)-4-(((4-chlorophenyl)(phenyl)carbamoyloxy)methyl)cyclohexyl)methoxy)acetic acid], the “efficacy for the treatment and/or prevention of Raynaud's” value [4] is reported as “efficacious”, the “adverse events observed in the study” value ([5]; 22-week study, titrated up to 0.6 mg total daily dose) is reported as “consistent with other prostacyclin treatments for the management of PAH” and the “6-minute walk distance (6MWD)” value [5, 6] is reported as “numerical improvement”. The “change from baseline in pulmonary vascular resistance (PVR) compared to placebo (primary endpoint)” value [5, 6] was “statistically significant change from baseline”.
